One data set deals with COX-I (Homo sapiens, UniProt P23219). Conditions: oral form; cited from earlier work.
The test system of data set [1] is interleukin1b-induced prostaglandin E2 production. The following applies: cited from earlier work.
For data set [2] the following is noted: cited from earlier work.
The conditions of data set [3]: upon dissolution in solvents; cited from earlier work.
Another data set relates to Acute Lumbago patients. The experiment in a line: Randomized comparative open labeled multicentric trial in Acute Lumbago (Phase III, 300 patients). The following applies: at 8 hrs, 24 hrs and after 48 hrs of treatment; p<0.05. It is filed as in vivo, human.
For data set [4] the following is noted: aqueous formulation; cited from earlier work.

The source of these data is patent US8734852B2, “Parenteral controlled release formulations of NSAID's” (priority 2011, dated 2014).

COX-I, sequence (P23219 24-599): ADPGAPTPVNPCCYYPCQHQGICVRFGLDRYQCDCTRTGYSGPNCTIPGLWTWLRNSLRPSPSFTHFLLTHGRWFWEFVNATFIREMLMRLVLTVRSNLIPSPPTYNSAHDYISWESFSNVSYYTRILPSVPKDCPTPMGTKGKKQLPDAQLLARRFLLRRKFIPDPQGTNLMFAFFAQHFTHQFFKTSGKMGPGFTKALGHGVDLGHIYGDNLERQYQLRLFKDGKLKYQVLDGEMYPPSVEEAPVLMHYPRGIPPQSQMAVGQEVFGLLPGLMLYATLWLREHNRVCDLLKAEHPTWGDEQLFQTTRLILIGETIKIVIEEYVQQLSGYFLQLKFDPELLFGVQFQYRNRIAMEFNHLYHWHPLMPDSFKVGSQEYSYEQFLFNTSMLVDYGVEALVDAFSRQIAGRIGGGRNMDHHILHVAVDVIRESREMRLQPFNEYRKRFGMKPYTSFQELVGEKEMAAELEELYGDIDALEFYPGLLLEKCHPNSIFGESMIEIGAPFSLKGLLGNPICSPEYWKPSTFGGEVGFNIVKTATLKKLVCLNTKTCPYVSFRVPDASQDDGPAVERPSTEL

As to `O=C(O)COC(=O)Cc1ccccc1Nc1c(Cl)cccc1Cl` [Aceclofenac], the COX-I inhibitor effect entry on COX-I is on record as “poor COX-I inhibitor effect”. In addition, the “interleukin1b-induced prostaglandin E2 production” value in data set [1] is “inhibits”. Besides, the solubility in water entry in data set [2] is reported as “water insoluble”. In data set [3], the conversion into diclofenac entry is “immediately upon dissolution in most of the solvents”.

In the case of `O=C(O)Cc1ccccc1Nc1c(Cl)cccc1Cl` [Diclofenac], the “modified Schober's test improvement” value with Acute Lumbago patients is given as “progressive improvements”. Also, the solubility in water entry in data set [2] is recorded as “soluble in water”. Further, the “retention of drug inside body” value in data set [4] was not above 8 h.
